Reference: patent US5512478A, “Genes and enzymes involved in the microbial degradation of pentachlorophenol” (Idaho Research Foundation, Inc., priority 1994, dated 1996)
Like-named read-outs stand apart in the source and are kept apart here.

Tests used:
[1] = biological target: T1, PcpB (Sphingobium chlorophenolicum, UniProt P42535); assay: Substrate disappearance in the presence of PcpB (substrate range); type: biochemical, Flavobacterium sp. Strain ATCC 39723; conditions: for (%) Relative Activity (substrate disappearance in the presence of PcpB): 10 nmoles substrate, 40 nmoles NADPH, PcpB 500 μg/ml, 80 mM potassium phosphate pH 7.5, 0.5% Tween 20, 23° C., PCP assumed 100%; for End Products of PcpB reaction: HPLC or GC/MS analysis
T1 construct: endogenous in cells; host or cells: Flavobacterium sp; Strain ATCC 39723, PCP-induced; enzyme purified in house from the native bacterium
T1 sequence (P42535 2-538): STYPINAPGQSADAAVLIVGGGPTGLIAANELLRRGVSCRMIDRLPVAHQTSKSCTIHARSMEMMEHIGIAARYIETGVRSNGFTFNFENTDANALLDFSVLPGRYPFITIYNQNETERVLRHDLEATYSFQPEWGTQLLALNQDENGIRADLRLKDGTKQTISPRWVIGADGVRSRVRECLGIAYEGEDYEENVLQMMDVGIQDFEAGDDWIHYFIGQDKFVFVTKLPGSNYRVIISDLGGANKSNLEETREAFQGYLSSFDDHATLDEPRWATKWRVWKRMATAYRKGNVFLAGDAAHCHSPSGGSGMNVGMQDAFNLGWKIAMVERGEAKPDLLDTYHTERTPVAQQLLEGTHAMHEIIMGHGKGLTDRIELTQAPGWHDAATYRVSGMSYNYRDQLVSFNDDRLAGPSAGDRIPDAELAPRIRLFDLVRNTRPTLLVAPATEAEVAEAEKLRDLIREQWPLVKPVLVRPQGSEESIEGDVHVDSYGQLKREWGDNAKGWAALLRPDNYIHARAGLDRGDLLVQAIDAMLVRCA
Procedure: A stock solution of PCP (concentration, 37.6 mM) was prepared in 0.2M NaOH and stored in the dark at room temperature. Stock solutions of all other halogenated aromatic compounds (concentration, 20 mM) were prepared in absolute ethanol and stored at 4° C. in the dark. The NADPH solution of 10 mM was freshly prepared in 1 mM dithiothreitol and 1 mM Tris base (pH 13).
PcpB was purified as described above. Enzyme reactions were conducted in 80 mM potassium phosphate buffer (pH 7.5) with 0.5% Tween 20 at 23° C. The enzyme concentration was 500 μg/ml in all reactions.
All of the aromatic substrates and the corresponding enzyme product (aromatic portion) were monitored by reverse phase high-performance liquid chromatography (HPLC) analysis as described above for PCP and TeCH analysis, except that the absorptions at 285, 300, and 310 nm were recorded by using a Waters 490 E programmable multiwavelength UV detector. Gas chromatography/mass spectrometry (GC/MS) analysis was done as previously described (Topp and Akhtar, 1990).
I^- was measured by the Leuco crystal violet assay described above. NO2 was colorimetrically measured using the N-(1-naphthyl) ethylenediamine dihydrochloride-sulfanilamide reagent method (American Public Health Association, 17th Ed., 1989). NH3 was colorimetrically measured by Nesslerization method (American Public Health Association, 17th Ed., 1989). CN was measured by the colorimetric method of Nagashima (1984). NH2 OH was measured by the method of Magee and Burris (1954).
^a All enzyme reactions were conducted in a reaction mix volume of 10
μl, containing 10 nmoles of substrate, 40 nmoles of NADPH. The
substrate depletion and product production were measured by HPLC or GC/MS
analysis. Relative enzyme activity for PCP was assumed to be 100%; the
relative enzyme activities for other compounds were compared with that fo

[2] = biological target: T1, PcpB; conditions: GC/MS; cited from earlier work
[3] = biological target: T1, PcpB; assay: PCP degradation as an assay of PcpB activity (HPLC); type: biochemical, Flavobacterium sp. Strain ATCC 39723
Procedure: PcpB activity was assayed by measuring the depletion of PCP and/or the production of TECH. […] MgSO4 was later determined not to enhance the activity of the purified enzyme. Tween 20 was determined to facilitate reproducible quantitation of PCP by high-performance liquid chromatography (HPLC) analysis as described below. A 10 μl volume of reaction mixture was injected onto the HPLC column at 4 min. after the start of the reaction. One unit of enzyme activity was defined as the amount of enzyme that catalyzed the production of 1 μmol of TeCH or the consumption of 1 μmol of PCP per min under the assay conditions. The reaction rate was linear for about 5 min. with […] of the enzyme, and then the reaction rate decreased gradually over the next 15 min.
PCP and TeCH were analyzed by HPLC (Waters, Milford, Mass.) on a Nova-Pak C18 column (3.9 by 150 mm) with an 11 mM H3 PO4 -acetonitrile gradient (acetonitrile concentrations 10 to 65% 5 min.! and 65% 10 min.!). Maximum absorption at 310, 320, and 330 nm was recorded by use of a Waters 490E programmable multiwavelength UV detector connected to a Maxima NEC computer workstation (Waters). The retention times of PCP and TeCH were 11.5 and 8.9 min., respectively. PCP and TeCH were quantified by comparing their peak areas with the peak areas of authentic standards. NADPH concentration in the reaction mixture was measured by HPLC on the Nova-Pak C18 column with an isocratic 50 mM KPi buffer (ph 8.0). Flavins were determined by HPLC on a μCarbohydrate analyzing column (3.9 by 300 mm) (Analytical Sciences Incorporated, Santa Clara, Calif.) with an isocratic solution of acetonitrile-distilled water (60:40, vol/vol). Protein purity was checked by HPLC on a Delta Pak C18 30 nm column (3.9 by 150 mm) with a water-acetonitrile gradient containing 0.1% trifluoroacetic acid (acetonitrile concentrations, 15% 1 min.!, 15 to 40% 1 min.!, 40% 2 min.!, 40 to 75% 8 min.!, 75 to 100% 1 min.!, 100% 7 min.!, 100 to 15% 1 min.!) at a flow rate of 1 ml/min. […]
and incubated at room temperature for 4 min. before being analyzed by […]

[4] = Stability of TeCH in the PcpB reaction mixture; type: physicochemical
[5] = biological target: T2, PcpC (Sphingobium chlorophenolicum, UniProt Q03520); type: biochemical, Flavobacterium sp. Strain ATCC 39723; conditions: 33 μg of purified enzyme per ml; GC-MS of ether extract
T2 construct: endogenous in cells; host or cells: Flavobacterium sp; Strain ATCC 39723, PCP-induced; enzyme purified in house from the native bacterium
T2 sequence (Q03520 2-248): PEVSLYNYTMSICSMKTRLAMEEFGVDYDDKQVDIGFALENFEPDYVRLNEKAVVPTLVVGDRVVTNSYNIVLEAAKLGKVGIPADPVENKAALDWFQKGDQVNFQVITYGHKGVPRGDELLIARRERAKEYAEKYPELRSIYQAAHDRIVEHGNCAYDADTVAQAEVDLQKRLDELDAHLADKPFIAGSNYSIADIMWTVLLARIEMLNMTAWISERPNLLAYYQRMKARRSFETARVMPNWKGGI
Procedure: Enzymatic activity assay. The reaction mixture contained 50 mM KPi buffer (pH 7.4), 0.4% Tween 20 (Sigma), 100 μM of TeCH, and 1 mM ascorbic acid. All the reactions were incubated at 23° C. in an anaerobic chamber containing an atmosphere of 85% N2, 5% CO2, and 10% H2 (Coy Laboratory Products Inc., Ann Arbor, Mich.). The reactions were stopped by addition of an equal volume of acetonitrile to the reaction mixture. TeCH stock solution (20 mM) was prepared in absolute ethanol. NADPH and NADH stock solutions (10 mM) were freshly prepared in 1 mM Tris buffer (pH 13) with 1 mM dithiothreitol. […]
Analytical method. […] TeCH, TrCH and DiCH were analyzed by HPLC on a Nova-Pak C-18 column (3.9 by 150 mm) (Waters, Milford, Mass.) with an 11 mM H3 PO4 -acetonitrile gradient as described above. Maximum absorption at 285, 300, 310 nm was recorded by using a Waters 490E programmable multiwave-length UV detector connected to a Maxima NEC computer workstation (Waters). […] TeCH and DiCH in the reaction mixtures were identified and quantified by comparison of their retention time and peak areas with that of authentic standards, respectively. TrCH was extracted with diethyl ether from the reaction mixture and analyzed by gas chromatography/mass spectrometry (GC/MS) as described by Topp and Akhtar (1990). […] GSH and the oxidized form of glutathione (GS-SG) were detected by the enzymatic method of Tietze (1969).

Structure (SMILES) | (%) Relative Activity (substrate disappearance in the presence of PcpB) [1] [%] | End Products of PcpB reaction [1] | further results
Oc1ccc(Cl)c(Cl)c1Cl [2,3,4-Trichlorophenol] | 29 |  | 
Oc1c(Cl)c(Cl)cc(Cl)c1Cl [2,3,5,6-Tetrachlorophenol] | 1212 | TeCH | 
Oc1c(Cl)ccc(Cl)c1Cl [2,3,6-Trichlorophenol, 2,3,6-trichlorophenol] | 302 | 2,3,6-trichloro-p-hydroquinone | 
Oc1cccc(Cl)c1Cl [2,3-Dichlorophenol] | 24 |  | 
Oc1c(Br)cc(Br)cc1Br [2,4,6-Tribromophenol] | 35 |  | 
Oc1c(Cl)cc(Cl)cc1Cl [2,4,6-Trichlorophenol, 2,4,6-trichlorophenol] | 29 | 2,6-dichloro-p-hydroquinone | 
Oc1c(I)cc(I)cc1I [2,4,6-Triiodophenol] | 172 | 2,6-diiodo-p-hydroquinone | 
O=[N+]([O-])c1cc(Br)c(O)c(Br)c1 [2,6-Dibromo-4-nitrophenol] | 62 |  | 
Oc1c(Br)cccc1Br [2,6-Dibromophenol] | 605 |  | 
Oc1c(Cl)cccc1Cl [2,6-Dichlorophenol, 2,6-dichlorophenol] | 344 | 2,6-dichloro-p-hydroquinone | 
Oc1cc(Cl)c(Cl)c(Cl)c1 [3,4,5-Trichlorophenol, 3,4,5trichlorophenol] | 0 | None | 
N#Cc1cc(Br)c(O)c(Br)c1 [3,5-Dibromo-4-hydroxybenzonitrile] | 591 |  | End Products of PcpB reaction (from Topp et al.) [2]: 2,6-dibromo-p-hydroquinone
Oc1cc(Cl)cc(Cl)c1 [3,5-Dichlorophenol, 3,5dichlorophenol] | 0 | None | 
N#Cc1cc(I)c(O)c(I)c1 [3,5-Diiodo-4-hydroxybenzonitrile] | 835 |  | End Products of PcpB reaction ([1]; listed as 3,5-diiodo-4-hydroxylbenzonitrile): DIHQ
Nc1cc(Cl)c(O)c(Cl)c1 [4-Amino-2,6-dichlorophenol] | 93 |  | 
O=C(O)CN(CCN(CC(=O)O)CC(=O)O)CC(=O)O [EDTA] |  |  | influence of additive on activity of purified PcpB [3]: did not influence the enzymatic activity
O=S(=O)([O-])[O-].[Mg+2] [MgSO4] |  |  | influence of additive on activity of purified PcpB ([3]; addition to 5 mM): did not influence the enzymatic activity
Oc1c(Cl)c(Cl)c(Cl)c(Cl)c1Cl [Pentachlorophenol] | 100 |  | End Products of PcpB reaction ([1]; listed as PCP): TeCH; Conversion of PCP to TeCH by purified PcpB ([3]; 37 μM PCP, 100 mM KPi buffer (pH 7.0), 100 μM NADPH, within 20 min.): completely converted
Oc1c(F)c(F)c(F)c(F)c1F [Pentafluorophenol] | 47 |  | 
Oc1c(Cl)c(Cl)c(O)c(Cl)c1Cl [TeCH, 2,3,5,6-tetrachloro-p-hydroquinone] |  |  | stability of TeCH ([4]; optimal pH conditions (7.5 to 9.0)): highly unstable; stability of TeCH ([4]; pH lower than 7.5): relatively stable; product of TeCH conversion by TeCH reductive dehalogenase [5]: DiCH
Oc1ccccc1 [phenol] |  |  | Extent of oxidation/degradation by the enzyme [1]: not degraded
